Values of other authors in patent US20170101624A1, “METHODS OF ENHANCING T-CELL LONGEVITY AND USES THEREOF” (Washington University, priority 2015, published 2017).

Tested on: Drp1 (Dnm1)
Conditions: as disclosed in Cassidy-Stone et al. Developmental Cell 2008

COc1cc(-n2c(=S)[nH]c3ccccc3c2=O)c(Cl)cc1Cl [compound A]
efficacy relative to Mdivi-1 (inhibition of mitochondrial fission): full efficacy
